What all share (assay type): cell-based
One experiment deals with T1, human MC1 receptor (Homo sapiens, UniProt Q01726).
T1 construct: expressed in transfected cells; host or cells: FreeStyle 293-F cells (transient, electroporation)
The experiment is described as follows: Human MC1 receptor activation, cAMP production in cells transiently expressing the receptor. The note with it: FreeStyle 293-F cells expressing human MC1 receptor, α-MSH maximum = 100%. The source says:
(§1) (1) Construction of Human MC Receptor-Expressing Vector
(§2) A human MC4 receptor gene (GenBank Accession No.: NM_005912.2), a human MC1 receptor gene (GenBank Accession No.: NM_002386.3), or a human MC3 receptor gene (GenBank Accession No.: NM_019888.3) was introduced into an expression vector pcDNA™ 3.1N/V5-His TOPO (registered trademark) (Thermo Fisher Scientific Inc).
(§3) (2) Construction of Cells Transiently Expressing Human MC Receptor
(§4) An expression vector for a human MC4, MC1, or MC3 receptor was introduced into FreeStyle™ 293-F cells (Thermo Fisher Scientific Inc., product number: R790-07). For the introduction, electroporation was employed. That is, 1×10^7 FreeStyle™ 293-F cells were suspended in 80 μL of an Electroporation Buffer (Thermo Fisher Scientific Inc., product number: B201-100), and 20 μg of the expression vector was added thereto. The resultant was put into a cuvette (OC-100 Processing Assembly, MaxCyte, Inc.) and electroporated with MaxCyte STX (registered trademark) (MaxCyte, Inc.). The cells were cultured for a day, suspended in a Cell Banker (registered trademark) 1 (TAKARA BIO INC. or JUJI FIELD Inc., product number: BLC-1), and stored frozen until they were used.
(§5) (3) Measurement of Amount of cAMP Production
(§6) Measurement was carried out by using a LANCE (registered trademark) Ultra cAMP Kit (PerkinElmer, Inc.) in accordance with the attached instructions. That is, after dissolution in DMSO, the test compound (a final concentration of 1 pM to 30 μM) diluted with an assay buffer (Hank's balanced salt solution, 5 mM 4-(2-hydroxyethyl)-1-piperazineethanesulfonic acid (HEPES), 0.5 mM 3-isobutyl-1-methylxanthine (IBMX), 0.1% bovine serum albumin, pH 7.4), or α-MSH (Bachem Inc., a final concentration of 1 pM to 30 μM) was added to OptiPlate-384 (PerkinElmer, Inc.). Furthermore, the suspension of the cells transiently expressing the human MC4, MC1, or MC3 receptor prepared using the assay buffer was added thereto at 1,000 cells/well, and then left to stand at room temperature for about 1 hour. Thereafter, an Eu-cAMP tracer solution and an ULight™-anti-cAMP solution were added thereto, and then the resulting solution was left to stand at room temperature for about 1 hour. The amount of cAMP was calculated using EnVision (registered trademark) (PerkinElmer Inc.).
(§7) For the agonistic activity, the efficacy (EC50 (μM)) was calculated by a non-linear regression method with a Sigmoid-Emax model, by defining the maximum reaction using α-MSH as 100% and the reaction using the vehicle alone as 0%, respectively.
(Cyclic AMP is a second messenger, typically raised through Gs and lowered through Gi signalling.)

A further experiment has as its target T2, human MC3 receptor (Homo sapiens, UniProt P41968).
T2 construct: expressed in transfected cells; host or cells: FreeStyle 293-F cells (transient, electroporation)
The experiment can be described thus: Human MC3 receptor activation, cAMP production in cells transiently expressing the receptor. The note with it: FreeStyle 293-F cells expressing human MC3 receptor, α-MSH maximum = 100%.
Text: as §1, §2, §3, §4, §5, §6, §7

A further experiment has as its target T3, rat MC4 receptor (Rattus norvegicus, UniProt P70596).
T3 construct: expressed in transfected cells; host or cells: FreeStyle 293-F cells (transient, electroporation)
The experiment can be described thus: Rat MC4 receptor activation, cAMP production in cells transiently expressing the receptor. The note with it: FreeStyle 293-F cells expressing rat MC4 receptor, α-MSH maximum = 100%.
Text: (1) Construction of Rat MC4 Receptor-Expressing Vector
A rat MC4 receptor gene (GenBank Accession No.: NM_013099.3) was introduced into an expression vector pcDNA™ 3.1N/V5-His TOPO (registered trademark) (Thermo Fisher Scientific Inc.).
(2) Construction of Cells Transiently Expressing Rat MC4 Receptor
as §4, with “rat MC4” for “human MC4, MC1, or MC3”, “Inc.).” for “Inc., product number: R790-07).”, “electroporation buffer” for “Electroporation Buffer”, “Inc.),” for “Inc., product number: B201-100),”, “Inc.),” for “Inc., product number: BLC-1),”
as §5
Measurement was carried out in accordance with the attached instructions, using a LANCE (registered trademark) Ultra cAMP Kit (PerkinElmer, Inc.). That is, after dissolution in DMSO, the test compound (a final concentration of 1 pM to 30 μM) diluted with an assay buffer (Hank's balanced salt solution, 5 mM HEPES, 0.5 mM IBMX, 0.1% bovine serum albumin, pH 7.4), or α-MSH (Bachem Inc., a final concentration of 1 pM to 30 μM) was added to OptiPlate-384 (PerkinElmer, Inc.). Furthermore, the suspension of the cells transiently expressing the rat MC receptor that was prepared using the assay buffer was added thereto at 1,000 cells/well, and then left to stand at room temperature for about 1 hour. Thereafter, an Eu-cAMP tracer solution and an ULight™-anti-cAMP solution were added thereto, and the resulting solution was left to stand at room temperature for about 1 hour. The amount of cAMP was calculated using EnVision (registered trademark) (PerkinElmer Inc).
For the agonistic activity, an efficacy (EC50 (μM)) was calculated by a non-linear regression method with a Sigmoid-Emax model, by defining the maximum reaction using α-MSH as 100% and the reaction using a vehicle alone as 0%, respectively.

The next experiment addresses T4, human MC4 receptor (Homo sapiens, UniProt P32245).
T4 construct: expressed in transfected cells; host or cells: FreeStyle 293-F cells (transient, electroporation)
The experiment is described as follows: Human MC4 receptor activation, cAMP production in cells transiently expressing the receptor. The note with it: FreeStyle 293-F cells expressing human MC4 receptor, α-MSH maximum = 100%.
Text: as §1, §2, §3, §4, §5, §6, §7

Molecules are shown by their SMILES. Structures can show the parent of a compound that is named as a salt.

T4 sequence (P32245 whole entry): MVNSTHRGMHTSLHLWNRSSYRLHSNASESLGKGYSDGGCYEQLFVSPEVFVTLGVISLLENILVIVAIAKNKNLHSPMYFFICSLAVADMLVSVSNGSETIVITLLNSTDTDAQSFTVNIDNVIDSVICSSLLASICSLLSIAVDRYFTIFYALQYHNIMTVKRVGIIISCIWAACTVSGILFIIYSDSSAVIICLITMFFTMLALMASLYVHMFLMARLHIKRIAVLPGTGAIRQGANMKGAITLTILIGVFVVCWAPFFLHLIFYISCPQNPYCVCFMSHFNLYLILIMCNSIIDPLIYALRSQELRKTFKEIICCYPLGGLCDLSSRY
T1 sequence (Q01726 whole entry): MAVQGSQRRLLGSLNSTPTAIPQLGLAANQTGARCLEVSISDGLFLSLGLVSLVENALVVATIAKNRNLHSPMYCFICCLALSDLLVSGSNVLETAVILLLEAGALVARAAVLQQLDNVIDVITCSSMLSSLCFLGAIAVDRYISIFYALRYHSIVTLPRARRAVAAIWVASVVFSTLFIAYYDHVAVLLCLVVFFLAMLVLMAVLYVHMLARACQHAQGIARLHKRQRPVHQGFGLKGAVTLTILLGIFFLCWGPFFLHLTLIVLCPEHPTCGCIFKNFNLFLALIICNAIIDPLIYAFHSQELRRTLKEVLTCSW
T3 sequence (P70596 whole entry): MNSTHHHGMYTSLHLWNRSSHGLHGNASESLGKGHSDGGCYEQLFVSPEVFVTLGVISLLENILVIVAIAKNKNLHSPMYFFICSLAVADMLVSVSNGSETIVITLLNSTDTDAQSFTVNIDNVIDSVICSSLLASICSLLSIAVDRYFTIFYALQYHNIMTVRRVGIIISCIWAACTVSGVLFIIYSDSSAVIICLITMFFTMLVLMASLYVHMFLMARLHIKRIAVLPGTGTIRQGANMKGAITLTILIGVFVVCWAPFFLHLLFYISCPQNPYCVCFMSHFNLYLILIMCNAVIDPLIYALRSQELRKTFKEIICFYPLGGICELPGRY
T2 sequence (P41968 whole entry): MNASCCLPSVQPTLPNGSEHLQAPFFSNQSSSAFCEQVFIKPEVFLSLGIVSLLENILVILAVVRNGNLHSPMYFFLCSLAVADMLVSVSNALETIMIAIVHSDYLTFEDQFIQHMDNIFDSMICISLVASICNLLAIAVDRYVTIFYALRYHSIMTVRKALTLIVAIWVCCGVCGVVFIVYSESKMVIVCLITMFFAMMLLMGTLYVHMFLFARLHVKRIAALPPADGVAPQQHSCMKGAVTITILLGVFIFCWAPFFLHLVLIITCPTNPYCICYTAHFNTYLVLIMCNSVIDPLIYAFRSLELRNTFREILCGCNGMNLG

As a reminder, the EC50 is the concentration at which the effect is half-maximal. As for `CC(=O)N[C@@H](Cc1ccc(Cl)cc1)C(=O)N1CCN(C(=O)[C@@H]2CN(C(C)(C)C)C[C@H]2c2ccc(F)cc2F)[C@@H](C)C1` [Example 7], the EC50 at human MC1 receptor was 0.68 µM; on human MC3 receptor, 4.4 µM; at rat MC4 receptor, 0.015 µM; at human MC4 receptor, 0.077 µM.

`C[C@H]1CN(C(=O)[C@@H](NC(=O)C2CC2)C2CCCCC2)CCN1C(=O)[C@@H]1CN(C(C)(C)C)C[C@H]1c1ccc(F)cc1F` [Example 9] came in with a 50% effective concentration (EC50) on human MC4 receptor of 0.089 µM.

As to `CC(=O)N(C)[C@H](C(=O)N1CCN(C(=O)[C@@H]2CN(C(C)(C)C)C[C@H]2c2ccc(F)cc2F)[C@@H](C)C1)C1CCCCC1` [Example 10], on human MC4 receptor, the EC50 worked out at 0.012 µM.

`COC[C@H]1CN(C(=O)[C@H](CC(C)C)NC(C)=O)CCN1C(=O)C1CN(C(C)(C)C)CC1c1ccc(Br)cc1F` (stereo partly shown) [Example 12] had an EC50 at human MC4 receptor of 0.014 µM.

In turn, `CCC(=O)N[C@@H](CC(C)(C)C)C(=O)N1CCN(C(=O)[C@@H]2CN(C3CCOCC3)C[C@H]2c2ccc(Cl)cc2F)CC12CC2` [Example 13] registered an EC50 at human MC4 receptor of 0.034 µM.

Turning to `CC(=O)N[C@H](C(=O)N1CCN(C(=O)[C@@H]2CN(C(C)(C)C)C[C@H]2c2ccc(F)cc2F)[C@@H](C)C1)C1CCCC1` [Example 15], the EC50 at human MC4 receptor was 0.22 µM.

At human MC4 receptor, `CC(=O)N[C@@H](Cc1cccc(F)c1)C(=O)N1CCN(C(=O)[C@@H]2CN(C(C)(C)C)C[C@H]2c2ccc(F)cc2F)[C@@H](C)C1` [Example 17] yielded an EC50 of 0.04 µM. Compared with the last molecule, the EC50 is about 5.5-fold lower.

`CC(=O)N[C@@H](CC1CCC(C)(C)CC1)C(=O)N1CCN(C(=O)[C@@H]2CN(C(C)(C)C)C[C@H]2c2ccc(F)cc2F)[C@@H](C)C1` [Example 18, N-[(2S)-1-[(3S)-4-{[(3 S,4R)-1-tert-butyl-4-(2,4-difluorophenyl)pyrrolidin-3-yl]carbonyl}-3-methylpiperazin-1-yl]-3-(4,4-dimethylcyclohexyl)-1-oxopropan-2-yl]acetamide monohydrochloride] returned an EC50 on human MC4 receptor of 0.062 µM.

Take `CC(=O)N[C@@H](CC1CCC(F)(F)CC1)C(=O)N1CCN(C(=O)[C@@H]2CN(C(C)(C)C)C[C@H]2c2ccc(F)cc2F)[C@@H](C)C1` [Example 19]: it took 0.38 µM to reach a half-maximal effect at human MC4 receptor (EC50).

Take `CCC(=O)N[C@@H](CC(C)(C)C)C(=O)N1CCN(C(=O)[C@@H]2CN(C3CCOCC3)C[C@H]2c2ccc(Cl)cc2F)[C@@H](C)C1` [Example 21]: a half-maximal effect on human MC4 receptor (EC50) was put at 0.13 µM.

On to `CC(=O)N[C@@H](Cc1ccccc1Cl)C(=O)N1CCN(C(=O)C2CN(C(C)(C)C)CC2c2cc(F)c(Cl)c(F)c2)[C@@H](C)C1` (stereo partly shown) [Example 22], for which, on human MC4 receptor, the EC50 amounted to 0.18 µM.

`CC(=O)N[C@@H](CC(C)(C)C)C(=O)N1CCN(C(=O)C2CN(C(C)(C)C)CC2c2ccc(Cl)cn2)[C@@H](C)C1` (stereo partly shown) [Example 23]: the EC50 on human MC1 receptor worked out at 0.87 µM; at human MC3 receptor, 0.45 µM; at rat MC4 receptor it was 0.0048 µM; at human MC4 receptor, 0.023 µM.

Regarding `CC(=O)N[C@@H](CC(C)(C)C)C(=O)N1CCN(C(=O)[C@@H]2CN(C(C)C)C[C@H]2c2ccc(F)cc2F)[C@@H](C)C1` [Example 24, N-{(2S)-1-[(3S)-4-{[(3S,4R)-4-(2,4-difluorophenyl)-1-isopropylpyrrolidin-3-yl]carbonyl}-3-methylpiperazin-1-yl]-4,4-dimethyl-1-oxopentan-2-yl}acetamide monohydrochloride], the EC50 amounted to 1.5 µM on human MC1 receptor, 6.4 µM at human MC3 receptor, 0.046 µM at rat MC4 receptor and 0.078 µM at human MC4 receptor.

With `CC(=O)N[C@@H](CC(C)(C)C)C(=O)N1CCN(C(=O)[C@@H]2CN(C3CCCCC3)C[C@H]2c2ccc(F)cc2F)[C@@H](C)C1` [Example 25], the EC50 at human MC4 receptor was determined as 0.12 µM.

At human MC4 receptor, `CC(=O)N[C@@H](CC(C)(C)C)C(=O)N1CCN(C(=O)[C@@H]2CN(C)C[C@H]2c2ccc(F)cc2F)[C@@H](C)C1` [Example 26] displayed a half-maximal effective concentration (EC50) of 5 µM.

As to `CC(=O)N[C@@H](CC(C)(C)C)C(=O)N1CCN(C(=O)[C@@H]2CN(CC3CC3)C[C@H]2c2ccc(F)cc2F)[C@@H](C)C1` [Example 27], a half-maximal effect on human MC4 receptor (EC50) was put at 1 µM. This EC50 lies about 5-fold lower than the previous one.

`C[C@H]1CN(C(=O)[C@H](Cc2ccccc2Cl)N(C)C)CCN1C(=O)[C@@H]1CN(C(C)(C)C)C[C@H]1c1ccc(F)cc1F` [Example 28, (2S)-1-[(3S)-4-{[(3 S,4R)-1-tert-butyl-4-(2,4-difluorophenyl)pyrrolidin-3-yl]carbonyl}-3-methylpiperazin-1-yl]-3-(2-chlorophenyl)-2-(dimethylamino)propan-1-one dihydrochloride] displayed an EC50 at human MC4 receptor of 0.0055 µM.

Turning to `CC(C)C[C@H](NS(C)(=O)=O)C(=O)N1CCN(C(=O)[C@@H]2CN(C3CCOCC3)C[C@H]2c2ccc(Cl)cc2F)[C@@H](C)C1` [Example 29, N-{(2S)-1-[(3S)-4-{[(3S,4R)-4-(4-chloro-2-fluorophenyl)-1-(tetrahydro-2H-pyran-4-yl)pyrrolidin-3-yl]carbonyl}-3-methylpiperazin-1-yl]-4-methyl-1-oxopentan-2-yl}methanesulfonamide monohydrochloride], the concentration giving a half-maximal response (EC50) on human MC4 receptor stood at 0.28 µM.

Consider `C[C@H]1CN(C(=O)[C@@H](N)C2CCCCC2)CCN1C(=O)[C@@H]1CN(C(C)(C)C)C[C@H]1c1ccc(F)cc1F` [Example 30, (2S)-2-amino-1-[(3S)-4-{[(3S,4R)-1-tert-butyl-4-(2,4-difluorophenyl)pyrrolidin-3-yl]carbonyl}-3-methylpiperazin-1-yl]-2-cyclohexylethanone dihydrochloride], for which, on human MC4 receptor, the EC50 amounted to 1.8 µM.

Source of the values: patent publication US10710988B2, “Piperazine derivative” (Astellas Pharma Inc., priority 2016, dated 2020).
